Data published in ChEMBL document CHEMBL3885881, “DrugMatrix”.

Species on record: Rattus norvegicus
Experiment: DrugMatrix - Regimen: Daily Repeat
Type: toxicity, organism-based, Sprague-Dawley
Parameters: regimen Daily Repeat, gender Male, age 6-8 weeks
Details: in vivo, po, 100 mg/kg, route oral GAVAGE, […]; for ABSOLUTE BASOPHIL / ABSOLUTE EOSINOPHIL / ABSOLUTE LYMPHOCYTE / ABSOLUTE MONOCYTE / ABSOLUTE SEGMENTED NEUTROPHIL / BASOPHIL / EOSINOPHIL / ERYTHROCYTE COUNT / HEMATOCRIT / HEMOGLOBIN / LEUKOCYTE COUNT / LYMPHOCYTE / MEAN CORPUSCULAR HEMOGLOBIN / MEAN CORPUSCULAR HEMOGLOBIN CONCENTRATION / MEAN CORPUSCULAR VOLUME / MONOCYTE / NEUTROPHIL / NUCLEATED RED BLOOD CELLS / PLATELET COUNT: tissue Blood; for ALANINE AMINOTRANSFERASE / ALBUMIN / ALKALINE PHOSPHATASE / ASPARTATE AMINOTRANSFERASE / BLOOD UREA NITROGEN / CARBON DIOXIDE / CHLORIDE / CHOLESTEROL / CREATINE PHOSPHOKINASE / CREATININE / GLUCOSE / LACTATE DEHYDROGENASE / LIPASE / PHOSPHORUS / POTASSIUM / SODIUM / TOTAL BILIRUBIN / TOTAL PROTEIN / URIC ACID: tissue Plasma
[1] = 72 h, dose level Low, time 3 day
[2] = 120 h, dose level High, time 5 day

In the case of CC(C)(Oc1ccc(CCNC(=O)c2ccc(Cl)cc2)cc1)C(=O)O [BEZAFIBRATE], the “ABSOLUTE BASOPHIL” value [1] was 0 CELLS/uL, the “ABSOLUTE EOSINOPHIL” value [1] was 180.5 CELLS/uL and the “ABSOLUTE LYMPHOCYTE” value [1] was 13739.67 CELLS/uL. For the same compound, the “ABSOLUTE MONOCYTE” value [1] was 378 CELLS/uL, the “ABSOLUTE SEGMENTED NEUTROPHIL” value [1] was 1401.83 CELLS/uL and the BASOPHIL [1] was 0%. The EOSINOPHIL [1] was 1.17%, the “ERYTHROCYTE COUNT” value [1] was 5.45 x10E6/uL and the HEMATOCRIT [1] was 33.9%. For the same compound, the HEMOGLOBIN [1] was 13.37 G/DL, the “LEUKOCYTE COUNT” value [1] was 15.7 x10E3/uL and the LYMPHOCYTE [1] was 87.33%. The “MEAN CORPUSCULAR HEMOGLOBIN” value [1] was 24.55 pg, the “MEAN CORPUSCULAR HEMOGLOBIN CONCENTRATION” value [1] was 39.42 G/DL and the “MEAN CORPUSCULAR VOLUME” value [1] was 62.22 fL. For the same compound, the MONOCYTE [1] was 2.33%, the NEUTROPHIL [1] was 9.17% and the “NUCLEATED RED BLOOD CELLS” value [1] was 0 /100WBC. For the same compound, the “PLATELET COUNT” value [1] was 1134.83 x10E3/uL, the “ALANINE AMINOTRANSFERASE” value [1] was 55.83 u/L and the ALBUMIN [1] was 4.3 G/DL. For the same compound, the “ALKALINE PHOSPHATASE” value [1] was 373.17 u/L, the “ASPARTATE AMINOTRANSFERASE” value [1] was 81 u/L and the “BLOOD UREA NITROGEN” value [1] was 13.33 mg/dL. The “CARBON DIOXIDE” value [1] was 28.33 mmol/L, the CHLORIDE [1] was 103.17 MEQ/L and the CHOLESTEROL [1] was 50.33 mg/dL. For the same compound, the “CREATINE PHOSPHOKINASE” value [1] was 275.67 u/L, the CREATININE [1] was 0.14 mg/dL and the GLUCOSE [1] was 153.33 mg/dL. For the same compound, the “LACTATE DEHYDROGENASE” value [1] was 111.33 u/L, the LIPASE [1] was 9.67 u/L and the PHOSPHORUS [1] was 10.52 mg/dL. The POTASSIUM [1] was 6.12 MEQ/L, the SODIUM [1] was 143.38 MEQ/L and the “TOTAL BILIRUBIN” value [1] was 0.17 mg/dL. The “TOTAL PROTEIN” value [1] was 5.68 G/DL, the “URIC ACID” value [1] was 1.27 mg/dL and the BASOPHIL [2] was 0.3%. For the same compound, the EOSINOPHIL [2] was 0.42%, the “ERYTHROCYTE COUNT” value [2] was 6.75 x10E6/uL and the HEMATOCRIT [2] was 45.06%. For the same compound, the HEMOGLOBIN [2] was 14.3 G/DL, the “LEUKOCYTE COUNT” value [2] was 9.46 x10E3/uL and the LYMPHOCYTE [2] was 82.9%. The “MEAN CORPUSCULAR HEMOGLOBIN” value [2] was 21.18 pg, the “MEAN CORPUSCULAR HEMOGLOBIN CONCENTRATION” value [2] was 31.76 G/DL and the “MEAN CORPUSCULAR VOLUME” value [2] was 66.76 fL. The MONOCYTE [2] was 2.08%, the NEUTROPHIL [2] was 12.9% and the “PLATELET COUNT” value [2] was 1359.2 x10E3/uL. The “ALANINE AMINOTRANSFERASE” value [2] was 30.4 u/L, the ALBUMIN [2] was 3.86 G/DL and the “ALKALINE PHOSPHATASE” value [2] was 393.2 u/L. The “ASPARTATE AMINOTRANSFERASE” value [2] was 76.8 u/L, the “BLOOD UREA NITROGEN” value [2] was 8 mg/dL and the CHLORIDE [2] was 110.2 MEQ/L. The CHOLESTEROL [2] was 53.8 mg/dL, the “CREATINE PHOSPHOKINASE” value [2] was 309.2 u/L and the CREATININE [2] was 0.58 mg/dL. It also gave a GLUCOSE [2] of 111.8 mg/dL, a PHOSPHORUS [2] of 13.26 mg/dL and a POTASSIUM [2] of 5.98 MEQ/L. The SODIUM [2] was 150.8 MEQ/L, the “TOTAL BILIRUBIN” value [2] was 0.2 mg/dL and the “TOTAL PROTEIN” value [2] was 5.94 G/DL. For the same compound, the BASOPHIL (dose level High, time 28 day) was 0.53%, the EOSINOPHIL (dose level High, time 28 day) was 0.56% and the “ERYTHROCYTE COUNT” value (dose level High, time 28 day) was 7.67 x10E6/uL. The HEMATOCRIT (dose level High, time 28 day) was 46.81%, the HEMOGLOBIN (dose level High, time 28 day) was 15.51 G/DL and the “LEUKOCYTE COUNT” value (dose level High, time 28 day) was 10.2 x10E3/uL. For the same compound, the LYMPHOCYTE (dose level High, time 28 day) was 83.76%, the “MEAN CORPUSCULAR HEMOGLOBIN” value (dose level High, time 28 day) was 20.22 pg and the “MEAN CORPUSCULAR HEMOGLOBIN CONCENTRATION” value (dose level High, time 28 day) was 33.13 G/DL. The “MEAN CORPUSCULAR VOLUME” value (dose level High, time 28 day) was 61.05 fL, the MONOCYTE (dose level High, time 28 day) was 1.65% and the NEUTROPHIL (dose level High, time 28 day) was 12.36%. For the same compound, the “PLATELET COUNT” value (dose level High, time 28 day) was 1339.5 x10E3/uL, the “ABSOLUTE BASOPHIL” value (dose level Low, time 7 day) was 0 CELLS/uL and the “ABSOLUTE EOSINOPHIL” value (dose level Low, time 7 day) was 36.5 CELLS/uL. For the same compound, the “ABSOLUTE LYMPHOCYTE” value (dose level Low, time 7 day) was 7716 CELLS/uL, the “ABSOLUTE MONOCYTE” value (dose level Low, time 7 day) was 109.33 CELLS/uL and the “ABSOLUTE SEGMENTED NEUTROPHIL” value (dose level Low, time 7 day) was 821.5 CELLS/uL. For the same compound, the BASOPHIL (dose level Low, time 7 day) was 0%, the EOSINOPHIL (dose level Low, time 7 day) was 0.5% and the “ERYTHROCYTE COUNT” value (dose level Low, time 7 day) was 5.31 x10E6/uL. For the same compound, the HEMATOCRIT (dose level Low, time 7 day) was 33.28%, the HEMOGLOBIN (dose level Low, time 7 day) was 13.1 G/DL and the “LEUKOCYTE COUNT” value (dose level Low, time 7 day) was 8.68 x10E3/uL. For the same compound, the LYMPHOCYTE (dose level Low, time 7 day) was 88.67%, the “MEAN CORPUSCULAR HEMOGLOBIN” value (dose level Low, time 7 day) was 24.67 pg and the “MEAN CORPUSCULAR HEMOGLOBIN CONCENTRATION” value (dose level Low, time 7 day) was 39.37 G/DL. The “MEAN CORPUSCULAR VOLUME” value (dose level Low, time 7 day) was 62.68 fL, the MONOCYTE (dose level Low, time 7 day) was 1.33% and the NEUTROPHIL (dose level Low, time 7 day) was 9.5%. The “NUCLEATED RED BLOOD CELLS” value (dose level Low, time 7 day) was 0 /100WBC, the “PLATELET COUNT” value (dose level Low, time 7 day) was 1167.33 x10E3/uL and the “ALANINE AMINOTRANSFERASE” value (dose level High, time 28 day) was 33.6 u/L. For the same compound, the ALBUMIN (dose level High, time 28 day) was 4.04 G/DL, the “ALKALINE PHOSPHATASE” value (dose level High, time 28 day) was 358.2 u/L and the “ASPARTATE AMINOTRANSFERASE” value (dose level High, time 28 day) was 65.4 u/L. For the same compound, the “BLOOD UREA NITROGEN” value (dose level High, time 28 day) was 15.6 mg/dL, the CHLORIDE (dose level High, time 28 day) was 108.6 MEQ/L and the CHOLESTEROL (dose level High, time 28 day) was 43.2 mg/dL. The “CREATINE PHOSPHOKINASE” value (dose level High, time 28 day) was 130.9 u/L, the CREATININE (dose level High, time 28 day) was 0.51 mg/dL and the GLUCOSE (dose level High, time 28 day) was 147.9 mg/dL. The PHOSPHORUS (dose level High, time 28 day) was 11.62 mg/dL, the POTASSIUM (dose level High, time 28 day) was 6.83 MEQ/L and the SODIUM (dose level High, time 28 day) was 152.6 MEQ/L. For the same compound, the “TOTAL BILIRUBIN” value (dose level High, time 28 day) was 0.2 mg/dL, the “TOTAL PROTEIN” value (dose level High, time 28 day) was 6.41 G/DL and the “ALANINE AMINOTRANSFERASE” value (dose level Low, time 7 day) was 52.17 u/L. The ALBUMIN (dose level Low, time 7 day) was 4.67 G/DL, the “ALKALINE PHOSPHATASE” value (dose level Low, time 7 day) was 346.67 u/L and the “ASPARTATE AMINOTRANSFERASE” value (dose level Low, time 7 day) was 68.17 u/L. The “BLOOD UREA NITROGEN” value (dose level Low, time 7 day) was 17.67 mg/dL, the “CARBON DIOXIDE” value (dose level Low, time 7 day) was 30.83 mmol/L and the CHLORIDE (dose level Low, time 7 day) was 102.83 MEQ/L. For the same compound, the CHOLESTEROL (dose level Low, time 7 day) was 57.83 mg/dL, the “CREATINE PHOSPHOKINASE” value (dose level Low, time 7 day) was 307.17 u/L and the CREATININE (dose level Low, time 7 day) was 0.24 mg/dL. The GLUCOSE (dose level Low, time 7 day) was 145.67 mg/dL, the “LACTATE DEHYDROGENASE” value (dose level Low, time 7 day) was 85.5 u/L and the LIPASE (dose level Low, time 7 day) was 9.33 u/L. For the same compound, the PHOSPHORUS (dose level Low, time 7 day) was 11.1 mg/dL, the POTASSIUM (dose level Low, time 7 day) was 5.85 MEQ/L and the SODIUM (dose level Low, time 7 day) was 143.98 MEQ/L. For the same compound, the “TOTAL BILIRUBIN” value (dose level Low, time 7 day) was 0.1 mg/dL, the “TOTAL PROTEIN” value (dose level Low, time 7 day) was 6.2 G/DL and the “URIC ACID” value (dose level Low, time 7 day) was 0.62 mg/dL.
